Calls of active or inactive are those of the source. The calls are words filed in the database; no cut-off is given here.
Experiments:
[1] = organism: Homo sapiens; assay: Activation of human mitochondrial NADP-ME E59L mutant expressed in Escherichia coli XL-1 by spectrophotometry
[2] = organism: Homo sapiens; assay: Inhibition of human mitochondrial NADP-ME E59L mutant expressed in Escherichia coli XL-1 assessed as residual enzyme activity by spectrophotometry in presence of fumarate
[3] = organism: Homo sapiens; assay: Inhibition of human mitochondrial NADP-ME E59L mutant expressed in Escherichia coli XL-1 assessed as residual enzyme activity by spectrophotometry in absence of fumarate

Row | Activity [1] | Activity [2] | Activity [3] | Compound
1 | inactive |  |  | O=C(O)/C=C/C(=O)O
2 |  | Active | Active | O=C(O)CC(=O)O
3 |  | Active | Active | O=C(O)/C=C/CC(=O)O
4 |  | Active | Active | O=C(O)/C=C\C(=O)O
